Experimental findings from ChEMBL document CHEMBL1201862, “PubChem BioAssay data set” (2004) are described below.

Calls of active or inactive are those of the source.

By AC50 is commonly meant the midpoint of the concentration-response curve, whichever way the signal moves. A word on the IC50: it is the concentration that inhibits the measured activity by half.

In one experiment the target is Caspase-6 (Homo sapiens, UniProt P55212). The experiment is described as follows: inhibition of CASP6 peptide cleavage – biochemical, VEID-R110 fluorescence, cherry-pick, dose response (AID 720632).
Sequence of Caspase-6 (P55212 24-179 limits assumed): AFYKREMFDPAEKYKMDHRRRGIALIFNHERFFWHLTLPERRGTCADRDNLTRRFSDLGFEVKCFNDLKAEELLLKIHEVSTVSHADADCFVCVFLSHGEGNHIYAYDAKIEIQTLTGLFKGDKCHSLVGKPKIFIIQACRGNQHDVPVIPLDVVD
Sequence of Caspase-6 (P55212 194-293 limits assumed): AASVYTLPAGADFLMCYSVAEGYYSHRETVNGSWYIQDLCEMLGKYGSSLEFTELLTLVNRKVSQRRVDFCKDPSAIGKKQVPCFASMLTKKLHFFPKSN
A short description of experiment [1]: Late stage assay provider results from the probe development effort to identify inhibitors of the Plasmodium falciparum M18 Aspartyl Aminopeptidase (M18AAP): radiolabel-based cell-based dose response assay to identify compounds that inhibit P. falciparum growth in RBCs, Set 2.. Type of experiment: functional.
Experiment [2] concerns the target COUP transcription factor 2 (Homo sapiens, UniProt P24468). The experiment is described as follows: Luminescence-based cell-based high throughput dose response assay to identify inhibitors of COUP-TFII (NR2F2). Type of experiment: functional.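 Further: HEK293 cells transiently cotransfected with COUP-TFII expression vector and reporter; luciferase reporter luminescence driven by COUP-TFII from the pX2-168 reporter plasmid.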
The subject of another experiment is INS1. Kind of experiment: INS-1E survival protection against cytokine death – cell-based, luminescence, retest, dose response (AID 449756).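 Further: cell death triggered by IL-1 beta plus TNF-alpha plus IFN-gamma mixture; protective hits raise ATP signal compared with cytokine alone wells.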 Type of experiment: functional. As to conditions: Rattus norvegicus.
Experiment [3] concerns the target G-protein coupled receptor 183 (Homo sapiens, UniProt P32249). Kind of experiment: SAR confirmation of small molecule antagonists of the EBI2 receptor via a luminescent beta-arrestin assa. Type of experiment: functional.
The target in experiment [4] is Tyrosyl-DNA phosphodiesterase 2 (Homo sapiens, UniProt O95551). The experiment is described as follows: potency against TDP2 phosphodiesterase activity – biochemical, epi absorbance, IC50, dose response (AID 743297).
Sequence of Tyrosyl-DNA phosphodiesterase 2 (O95551 whole entry): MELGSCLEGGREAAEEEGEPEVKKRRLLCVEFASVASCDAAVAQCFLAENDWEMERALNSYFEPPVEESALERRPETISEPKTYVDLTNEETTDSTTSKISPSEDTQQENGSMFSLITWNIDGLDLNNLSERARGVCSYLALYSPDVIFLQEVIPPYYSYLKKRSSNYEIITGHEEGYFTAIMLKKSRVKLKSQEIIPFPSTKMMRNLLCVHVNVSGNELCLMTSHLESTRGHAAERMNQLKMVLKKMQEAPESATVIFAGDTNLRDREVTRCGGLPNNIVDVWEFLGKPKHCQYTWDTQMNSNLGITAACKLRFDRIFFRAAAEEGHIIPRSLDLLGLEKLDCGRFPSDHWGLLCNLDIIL
Experiment [5] can be described thus: toxicity to human HepG2 hepatoma cells – cell-based, plate reader, dry powder samples, cytotoxicity control, dose response (AID 1159569).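 Further: inhibitor potency with signal falling toward the positive control level.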 Type of experiment: functional.
The nature of experiment [6]: Dd2 malaria parasite growth inhibition potency – SYBR Green, dry powder samples, dose response (AID 1159566).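 Further: potency for growth inhibition with lower SYBR green DNA signal.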 Type of experiment: functional, cell-based.
A short description of experiment [7]: growth inhibition of PfATP4-mutant resistant parasites – NITD609-resistant line, SYBR Green, dry powder, dose response (AID 1159571).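 Further: parasites synchronized at ring stage by sorbitol before testing.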 Type of experiment: functional, cell-based.
The nature of experiment [8]: viability loss in HEK293 cells – cell-based, plate reader, cherry-picked samples, cytotoxicity control, dose response (AID 743446). Type of experiment: functional.
A short description of experiment [9]: blockers of bursicon-stimulated LGR2 cAMP reporter – cell-based, HEK293, CRE-luciferase reporter, cherry pick, set 2, dose response (AID 743343).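 Further: transfected cells were stimulated with diluted bursicon conditioned medium after compound addition.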 Type of experiment: functional. For orientation: A reporter such as luciferase makes a cellular process visible.
Experiment [10] is described as follows: toxicity toward HepG2 liver cells – cell-based, plate reader, cherry-pick, antagonist series, cytotoxicity control, dose response (AID 743416). Type of experiment: functional.
Experiment [11] is described as follows: Dd2 parasite growth inhibition in erythrocytes – SYBR Green, dry powder samples, set 9, dose response (AID 1159568). Type of experiment: functional, cell-based.
Experiment [12] is described as follows: P. falciparum Dd2 growth inhibitors, dose response, SYBR Green, cherry-picked samples (AID 1159567). Type of experiment: functional, cell-based.
The nature of experiment [13]: blockade of melanocortin 4 receptor signaling – cell-based, plate reader, cherry pick, counter-screen for LGR2 antagonist project, dose response (AID 743444).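 Further: transfected HEK 293 cells stimulated with alpha-MSH peptide; potency of inhibitors of the alpha-MSH evoked signal.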 Type of experiment: functional. (In general: The purpose of a counterscreen is to sort out artefacts and off-target activity.)
Experiment [14] is described as follows: growth inhibition of yeast DHODH-expressing 3D7 parasites – SYBR Green, dry powder samples, dose response (AID 1159570).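 Further: parasite growth measured after 72 hours of compound exposure.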 Type of experiment: functional, cell-based.
The nature of experiment [15]: A549 cell cytotoxicity, dose response, cytotoxicity control, plate reader, cherry-pick, antagonist series (AID 743412). Type of experiment: functional, cell-based.

Sequence of G-protein coupled receptor 183 (P32249 whole entry): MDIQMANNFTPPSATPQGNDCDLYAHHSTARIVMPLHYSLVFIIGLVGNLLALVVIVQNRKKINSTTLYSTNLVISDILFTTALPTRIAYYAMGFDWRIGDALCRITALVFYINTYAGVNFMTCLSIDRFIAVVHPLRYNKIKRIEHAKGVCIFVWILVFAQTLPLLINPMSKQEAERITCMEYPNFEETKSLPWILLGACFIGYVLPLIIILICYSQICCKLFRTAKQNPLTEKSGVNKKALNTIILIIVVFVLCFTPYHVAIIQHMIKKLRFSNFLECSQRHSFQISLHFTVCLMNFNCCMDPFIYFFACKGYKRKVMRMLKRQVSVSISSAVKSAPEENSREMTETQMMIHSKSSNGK
Sequence of COUP transcription factor 2 (P24468 whole entry): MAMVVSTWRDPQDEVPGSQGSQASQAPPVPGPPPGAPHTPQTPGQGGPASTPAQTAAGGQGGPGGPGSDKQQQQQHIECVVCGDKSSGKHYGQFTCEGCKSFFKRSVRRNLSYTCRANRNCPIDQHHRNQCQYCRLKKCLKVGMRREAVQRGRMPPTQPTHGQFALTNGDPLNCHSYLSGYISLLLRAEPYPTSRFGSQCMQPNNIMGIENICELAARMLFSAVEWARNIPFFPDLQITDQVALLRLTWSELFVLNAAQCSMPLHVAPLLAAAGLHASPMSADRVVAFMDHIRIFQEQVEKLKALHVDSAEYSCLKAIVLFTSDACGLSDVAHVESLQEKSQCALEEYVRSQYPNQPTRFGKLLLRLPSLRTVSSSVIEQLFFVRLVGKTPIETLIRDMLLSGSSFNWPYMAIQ

Regarding `Cc1ccc(Sc2ccc(S(=O)(=O)Nc3ccc(CC(=O)O)cc3)cc2)cc1C`, the AC50 on Caspase-6 was 49.3 µM (active).

Consider `Oc1ccc(CCNC2CCN(Cc3ccccc3)CC2)cc1O`, for which the IC50 in experiment [1] is 6.5 µM (active).

For `COc1cccc(CCNc2c3ccccc3nc3ccccc23)c1`, in [1], the IC50 is 0.6 µM (active).

For `O=C(NCC(c1ccco1)N1CCCC1)c1ccc(Cl)c(S(=O)(=O)N2CCc3ccccc32)c1` (stereo not drawn), the IC50 in experiment [2] is 7.01 µM (active). For the same molecule, in the experiment with INS1, the AC50 is 3.56 µM (active).

Turning to `O=C(CCCc1ccc(Br)cc1)N1CCN(C(=O)c2ccc(Cl)cc2)CC1`, the IC50 in [3] was > 1 µM (inactive).

As to `COc1ccc(-c2[nH]nc(O)c2NC(=O)c2ccc(C)cc2)cc1`, the IC50 in experiment [4] was > 128 µM (inactive).

On to `COc1ccccc1C#Cc1ccc([C@H]2[C@@H](C#N)N(C(=O)C3CCCCC3)[C@H]2CO)cc1`, for which the AC50 in experiment [5] was 29.8 µM (active); in experiment [6], 0.349 µM (active); in experiment [7], 0.443 µM (active); in [8], 14.9 µM (active); in experiment [9], 11.3 µM (active); in experiment [10], 30.5 µM (active). In addition, the AC50 is 1.17 µM (active) in experiment [11]; 1.19 µM (active) in [12]; 7.87 µM (active) in experiment [13]; 0.862 µM (active) in [14]; 21.3 µM (active) in experiment [15].
